Test results reported in US20060270708A1, “Novel process for preparation of isotonic aqueous injection of ropivacaine” (Navinta LLC, priority 2005, published 2006).
Each block holds one compound with its values, some of them ahead of it.

Assays:
[1] = racemate compared with either D or L isomer alone, U.S. Pat. No. 4,695,576; cited from earlier work
[2] = reported in U.S. Pat. No. 4,870,086; cited from earlier work
[3] = optically pure form compared to the racemic mixture of bupivacaine; cited from earlier work
[4] = Content of ropivacaine base dissolved in the filtered solution, by HPLC against a control solution; type: physicochemical; conditions: equimolar or less concentrated hydrochloric acid, even at about 60° C.
Description: Each resulting solution was warmed to about 50° C. and then cooled to room temperature with stirring for about 30 min., after which was added a suitable quantity of sodium chloride, and the total volume of each was made up to 25 mL. Osmolality of the filtered solution was determined using conventional freezing point osmometer. The pH of these solutions were in the range 3.2 to 3.5. The content of ropivacaine base dissolved in the solution was determined by HPLC against a control solution prepared by dissolving the same base in excess of hydrochloric acid.
Each resulting solution was warmed to about 50° C. with stirring for about 30 min., then cooled to room temperature, after which was added a suitable quantity of sodium chloride. The pH was then adjusted to 5.0 using sodium hydroxide solution, and then the volume was made up to 25 mL. The osmolality of the filtered solution was determined using conventional freezing point osmometer. The content of ropivacaine base dissolved in the solution was determined by HPLC against a control solution prepared by dissolving the same base in excess of hydrochloric acid.

[5] = Hygroscopicity and stability of ropivacaine base and its salts; type: physicochemical

SMILES: CCCCN1CCCCC1C(=O)Nc1c(C)cccc1C (racemic) [bupivacaine, racemic N-n-butylpipecolic acid-2,6-xylidide]
analgesic effects [1]: better analgesic effects

SMILES: CCCN1CCCC[C@H]1C(=O)Nc1c(C)cccc1C.Cl [(L) N-n-propylpipecolic acid-2,6-xylidide hydrochloride]
hygroscopicity / stability [2]: hygroscopic and thus not stable

hygroscopicity [5]: not hygroscopic
stability compared with its hydrochloride or hydrochloride monohydrate salts [5]: much more stable
SMILES: CCCN1CCCC[C@H]1C(=O)Nc1c(C)cccc1C [ropivacaine base, (L) N-n-propylpipecolic acid-2,6-xylidide]
cardio-toxic potential [3]: reduced cardio-toxic potential
dissolution in aqueous media [4]: did not yield a completely homogeneous solution
